Patent US20230271956A1, “AMIDE DERIVATIVES” (Merck Patent GmbH, priority 2020, published 2023)
pIC50: −log10 of the molar value.

Each molecule was assayed against T1, ACSS2 (Homo sapiens, UniProt Q9NR19) (assay: Cellular assay of 14C acetate incorporation into histones (IC50 ACSS2 cellular histone)). Settings: HCT-15 cells.
T1 construct: endogenous fatty acid synthesis activity in the human HCT-15 cancer cell line; endogenous in cells; host or cells: HCT-15
Format: cell-based
Summary of the method: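 Human HCT-15 cells preincubated 1 h with compound (0.25% DMSO final), then pulsed 3 h with 14C-acetate. Histones were acid-extracted (0.2 M HCl, overnight, 4° C) after Triton lysis in sodium-butyrate buffer; incorporated 14C counted by liquid scintillation (CPM) to give IC50.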

T1 sequence (Q9NR19 whole entry): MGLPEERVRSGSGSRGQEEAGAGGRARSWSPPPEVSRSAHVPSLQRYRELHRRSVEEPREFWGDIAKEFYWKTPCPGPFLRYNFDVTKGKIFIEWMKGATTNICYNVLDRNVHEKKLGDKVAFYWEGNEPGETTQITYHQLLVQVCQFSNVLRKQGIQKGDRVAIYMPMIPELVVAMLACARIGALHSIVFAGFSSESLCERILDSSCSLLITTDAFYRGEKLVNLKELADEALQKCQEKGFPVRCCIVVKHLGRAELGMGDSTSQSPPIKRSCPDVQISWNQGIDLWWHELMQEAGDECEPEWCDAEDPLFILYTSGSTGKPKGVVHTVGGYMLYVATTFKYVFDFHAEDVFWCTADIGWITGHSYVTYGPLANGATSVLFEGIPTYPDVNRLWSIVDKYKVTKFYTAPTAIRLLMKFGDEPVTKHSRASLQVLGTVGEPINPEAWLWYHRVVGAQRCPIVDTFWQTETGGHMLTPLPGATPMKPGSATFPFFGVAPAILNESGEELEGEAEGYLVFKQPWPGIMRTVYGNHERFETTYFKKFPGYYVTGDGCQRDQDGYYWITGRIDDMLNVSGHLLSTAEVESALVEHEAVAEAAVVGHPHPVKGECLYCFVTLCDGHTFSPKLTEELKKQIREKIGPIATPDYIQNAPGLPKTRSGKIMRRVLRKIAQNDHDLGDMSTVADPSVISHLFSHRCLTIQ

SMILES | pIC50
CCc1c(C(O)(c2ccccc2)c2ccccc2)nc2cc(OC)c(C(=O)Nc3ncn(CC)n3)cn12 [Compound 24, 3-Ethyl-2-(hydroxy-diphenyl-methyl)-7-methoxy-imidazo[1,2-a]pyridine-6-carboxylic acid (1-ethyl-1H-[1,2,4]triazol-3-yl)-amide] | 9.00 to 11.00
CCc1c(C(O)(c2ccccc2)c2ccccn2)nc2cc(OC)c(C(=O)Nc3ncn(CC)n3)cn12 (racemic) [Compound 16, 3-Ethyl-2-(hydroxy-phenyl-pyridin-2-yl-methyl)-7-methoxy-imidazo[1,2-a]pyridine-6-carboxylic acid (1-ethyl-1H-[1,2,4]triazol-3-yl)-amide] | 8.00 to 9.00
CCc1c(C(O)(c2ccccc2)c2ccccc2)nc2cc(OC)c(C(=O)Nc3cnn(CC)c3)cn12 [Compound 23, 3-Ethyl-2-(hydroxy-diphenyl-methyl)-7-methoxy-imidazo[1,2-a]pyridine-6-carboxylic acid (1-ethyl-1H-pyrazol-4-yl)-amide] | 8.00 to 9.00
CCc1c(C(O)(c2ccccc2F)c2ccccc2F)nn2cc(OC)c(C(=O)Nc3cnn(CC)c3)cc12 [Compound 4, 2-[Bis-(2-fluoro-phenyl)-hydroxy-methyl]-3-ethyl-6-methoxy-pyrazolo[1,5-a]pyridine-5-carboxylic acid (1-ethyl-1H-pyrazol-4-yl)-amide] | 8.00 to 9.00
CCc1c(C(O)(c2ccccc2)c2ccccc2)nc2ccc(C(=O)Nc3cnn(CC)c3)cn12 [Compound 13, 3-Ethyl-2-(hydroxy-diphenyl-methyl)-imidazo[1,2-a]pyridine-6-carboxylic acid (1-ethyl-1H-pyrazol-4-yl)-amide] | 7.00 to 8.00
CCn1cnc(NC(=O)c2cc3c(nc2OC)nc(C(O)(c2ccccc2F)c2ccccc2F)n3CC)n1 [Compound 102, 2-[bis(2-fluorophenyl)(hydroxy)methyl]-1-ethyl-N-(1-ethyl-1H-1,2,4-triazol-3-yl)-5-methoxy-1H-imidazo[4,5-b]pyridine-6-carboxamide] | 9.00 to 11.00
CCc1c(C(O)(c2ccccc2F)c2ccccc2F)nc2cc(Cl)c(C(=O)Nc3ncn(CC)n3)cn12 [Compound 31, 2-[Bis-(2-fluoro-phenyl)-hydroxy-methyl]-7-chloro-3-ethyl-imidazo[1,2-a]pyridine-6-carboxylic acid (1-ethyl-1H-[1,2,4]triazol-3-yl)-amide] | 9.00 to 11.00
CCc1c(C(O)(c2ccccc2F)c2ccccc2F)nc2cc(OC)c(C(=O)Nc3cnn(CC)c3)cn12 [Compound 30, 2-[Bis-(2-fluoro-phenyl)-hydroxy-methyl]-3-ethyl-7-methoxy-imidazo[1,2-a]pyridine-6-carboxylic acid (1-ethyl-1H-pyrazol-4-yl)-amide] | 8.00 to 9.00
CCc1c(C(O)(c2ccccc2F)c2ccccc2F)nn2cc(Cl)c(C(=O)Nc3ncn(CC)n3)cc12 [Compound 2, 2-[Bis-(2-fluoro-phenyl)-hydroxy-methyl]-6-chloro-3-ethyl-pyrazolo[1,5-a]pyridine-5-carboxylic acid (1-ethyl-1H-[1,2,4]triazol-3-yl)-amide] | 9.00 to 11.00
CCc1c(C(O)(c2ccccc2)c2ccccc2)nn2cc(Cl)c(C(=O)Nc3cnn(CC)c3)cc12 [Compound 6, 6-Chloro-3-ethyl-2-(hydroxy-diphenylmethyl)-pyrazolo[1,5-a]pyridine-5-carboxylic acid (1-ethyl-1H-pyrazol-4-yl)-amide] | 8.00 to 9.00
CCn1c(C(O)(c2ccccc2)c2ccccc2)nc2ccc(C(=O)NC[C@@H](C)O)cc21 [Reference Compound, 3-Ethyl-2-[hydroxy(diphenyl)methyl]-N-[(2R)-2-hydroxypropyl]benzimidazole-5-carboxamide, reference compound] | 9.00 to 11.00
CCc1c(C(O)(c2ccccc2)c2ccccc2)nn2cc(OC)c(C(=O)Nc3ncn(CC)n3)cc12 [Compound 11, 3-Ethyl-2-(hydroxy-diphenyl-methyl)-6-methoxy-pyrazolo[1,5-a]pyridine-5-carboxylic acid (1-ethyl-1H-[1,2,4]triazol-3-yl)-amide] | 9.00 to 11.00
CCc1c(C(O)(c2ccccc2)c2ccccc2)nc2cc(Cl)c(C(=O)Nc3cnn(CC)c3)cn12 [Compound 19, 7-Chloro-3-ethyl-2-(hydroxy-diphenylmethyl)-imidazo[1,2-a]pyridine-6-carboxylic acid (1-ethyl-1H-pyrazol-4-yl)-amide] | 7.00 to 8.00
CCc1c(C(O)(c2ccccc2)c2ccccc2)nn2cc(Cl)c(C(=O)Nc3ncn(CC)n3)cc12 [Compound 1, 6-Chloro-3-ethyl-2-(hydroxy-diphenylmethyl)-pyrazolo[1,5-a]pyridine-5-carboxylic acid (1-ethyl-1H-[1,2,4]triazol-3-yl)-amide] | 9.00 to 11.00
CCc1c(C(O)(c2ccccc2F)c2ccccc2F)nc2cc(OC)c(C(=O)Nc3ncn(CC)n3)cn12 [Compound 28, 2-[Bis-(2-fluoro-phenyl)-hydroxy-methyl]-3-ethyl-7-methoxy-imidazo[1,2-a]pyridine-6-carboxylic acid (1-ethyl-1H-[1,2,4]triazol-3-yl)-amide] | 9.00 to 11.00
CCn1cnc(NC(=O)c2cc3c(nc2OC)nc(C(O)(c2ccccc2F)c2ccc(OC(F)F)cc2F)n3CC)n1 (racemic) [Compound 94, 2-{[4-(difluoromethoxy)-2-fluorophenyl](2-fluorophenyl)hydroxymethyl}-1-ethyl-N-(1-ethyl-1H-1,2,4-triazol-3-yl)-5-methoxy-1H-imidazo[4,5-b]pyridine-6-carboxamide] | 8.00 to 9.00
CCc1c(C(O)(c2ccccc2)c2ccccc2)nc2ccc(C(=O)Nc3ncn(CC)n3)cn12 [Compound 25, 3-Ethyl-2-(hydroxy-diphenyl-methyl)-imidazo[1,2-a]pyridine-6-carboxylic acid (1-ethyl-1H-[1,2,4]triazol-3-yl)-amide] | 9.00 to 11.00
CCc1c(C(O)(c2ccccc2)c2ccccc2)nc2cc(F)c(C(=O)Nc3ncn(CC)n3)cn12 [Compound 20, 3-Ethyl-7-fluoro-2-(hydroxy-diphenylmethyl)-imidazo[1,2-a]pyridine-6-carboxylic acid (1-ethyl-1H-[1,2,4]triazol-3-yl)-amide] | 9.00 to 11.00
CCc1c(C(O)(c2ccccc2F)c2ccccc2F)nn2ccc(C(=O)Nc3ncn(CC)n3)cc12 [Compound 5, 2-[Bis-(2-fluoro-phenyl)-hydroxy-methyl]-3-ethyl-pyrazolo[1,5-a]pyridine-5-carboxylic acid (1-ethyl-1H-[1,2,4]triazol-3-yl)-amide] | 8.00 to 9.00
CCc1c(C(O)(c2ccccc2)c2ccccc2)nn2cc(OC)c(C(=O)Nc3cnn(CC)c3)cc12 [Compound 8, 3-Ethyl-2-(hydroxy-diphenyl-methyl)-6-methoxy-pyrazolo[1,5-a]pyridine-5-carboxylic acid (1-ethyl-1H-pyrazol-4-yl)-amide] | 8.00 to 9.00
CCc1c(C(O)(c2ccccc2)c2ccccc2)nn2ccc(C(=O)Nc3cnn(CC)c3)cc12 [Compound 10, 3-Ethyl-2-(hydroxy-diphenyl-methyl)-pyrazolo[1,5-a]pyridine-5-carboxylic acid (1-ethyl-1H-pyrazol-4-yl)-amide] | 7.00 to 8.00
CCn1cnc(NC(=O)c2cc3c(nc2F)nc(C(O)(c2ccccc2)c2ccccc2)n3CC)n1 [Compound 89, 1-ethyl-N-(1-ethyl-1H-1,2,4-triazol-3-yl)-5-fluoro-2-(hydroxydiphenylmethyl)-1H-imidazo[4,5-b]pyridine-6-carboxamide] | 8.00 to 9.00
CCn1cnc(NC(=O)c2cc3c(nc2OC)nc(C(O)(c2ccccc2)c2ccccc2)n3CC)n1 [Compound 103, 1-ethyl-N-(1-ethyl-1H-1,2,4-triazol-3-yl)-2-(hydroxydiphenylmethyl)-5-methoxy-1H-imidazo[4,5-b]pyridine-6-carboxamide] | 9.00 to 11.00
CCc1c(C(O)(c2ccccc2F)c2ccccc2F)nn2cc(C)c(C(=O)Nc3ncn(CC)n3)cc12 [Compound 3, 2-[Bis-(2-fluoro-phenyl)-hydroxy-methyl]-3-ethyl-6-methyl-pyrazolo[1,5-a]pyridine-5-carboxylic acid (1-ethyl-1H-[1,2,4]triazol-3-yl)-amide] | 8.00 to 9.00
CCn1cnc(NC(=O)c2cc3c(nc2OC)nc(C(O)(c2ccccc2)c2ccccn2)n3CC)n1 (single isomer, unassigned) [Compound 53, 1-ethyl-N-(1-ethyl-1H-1,2,4-triazol-3-yl)-2-[hydroxy(phenyl)(pyridin-2-yl)methyl]-5-methoxy-1H-imidazo[4,5-b]pyridine-6-carboxamide] | 9.00 to 11.00
CCc1c(C(O)(c2ccccc2)c2ccccc2)nc2cc(Cl)c(C(=O)Nc3ncn(CC)n3)cn12 [Compound 14, 7-Chloro-3-ethyl-2-(hydroxy-diphenylmethyl)-imidazo[1,2-a]pyridine-6-carboxylic acid (1-ethyl-1H-[1,2,4]triazol-3-yl)-amide] | 8.00 to 9.00
CCn1cnc(NC(=O)c2cc3c(nc2F)nc(C(O)(c2ccccc2F)c2ccccc2F)n3CC)n1 [Compound 91, 2-[bis(2-fluorophenyl)(hydroxy)methyl]-1-ethyl-N-(1-ethyl-1H-1,2,4-triazol-3-yl)-5-fluoro-1H-imidazo[4,5-b]pyridine-6-carboxamide] | 9.00 to 11.00
CCc1c(C(O)(c2ccccc2)c2ccccc2)nn2ccc(C(=O)Nc3ncn(CC)n3)cc12 [Compound 9, 3-Ethyl-2-(hydroxy-diphenyl-methyl)-pyrazolo[1,5-a]pyridine-5-carboxylic acid (1-ethyl-1H-[1,2,4]triazol-3-yl)-amide] | 9.00 to 11.00
CCn1cc(NC(=O)c2cc3c(nc2F)nc(C(O)(c2ccccc2F)c2ccccc2F)n3CC)cn1 [Compound 90, 2-[bis(2-fluorophenyl)(hydroxy)methyl]-1-ethyl-N-(1-ethyl-1H-pyrazol-4-yl)-5-fluoro-1H-imidazo[4,5-b]pyridine-6-carboxamide] | 8.00 to 9.00
CCn1cc(NC(=O)c2cc3c(nc2Cl)nc(C(O)(c2ccccc2)c2ccccc2)n3CC)cn1 [Compound 98, 5-chloro-1-ethyl-N-(1-ethyl-1H-pyrazol-4-yl)-2-(hydroxydiphenylmethyl)-1H-imidazo[4,5-b]pyridine-6-carboxamide] | 8.00 to 9.00
